target: T1, TNF-α (Homo sapiens, UniProt P01375); assay: TNF-α Induced HEK Blue Cellular Assay (secreted alkaline phosphatase expression, QUANTI-Blue); format: cell-based; conditions: HEK Blue TNFα reporter cells; TNF-α 100 μg/ml; 24 hrs at 37° C.; inhibition of secreted alkaline phosphatase; read-out: IC50 value
T1 construct: purchased R&D 210-TA-020/CF
How it was run: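 Compound was serially diluted from […] to 0.5 nM final, then incubated with 10,000 HEK Blue TNFα reporter cells per well and […] TNF-α for 24 h at 37° C. SEAP output was read by QUANTI-Blue absorbance at 620 nm. Inhibition was background-corrected against DMSO controls with and without stimulation, and IC50 was fitted with a 4-parameter logistic equation.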

T1 sequence (P01375 77-233 limits assumed): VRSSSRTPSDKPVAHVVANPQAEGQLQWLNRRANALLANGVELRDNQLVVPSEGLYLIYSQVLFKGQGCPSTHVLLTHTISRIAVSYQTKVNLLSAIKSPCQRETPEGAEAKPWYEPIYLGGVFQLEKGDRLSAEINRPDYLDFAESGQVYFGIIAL

Row | IC50 | SMILES
1 | 0.1 to 1 µM | [2H]C([2H])([2H])N1C(=O)c2cccc(OC(F)F)c2[C@H]2C[C@@H]1c1nc3ccc(C#CCOc4ccccc4)cc3n12 [Example 79, (7R,14R)-1-(difluoromethoxy)-6-(methyl-d3)-11-(3-phenoxyprop-1-yn-1-yl)-6,7-dihydro-7,14-methanobenzo[f]benzo[4,5]imidazo[1,2-a][1,4]diazocin-5(14H)-one]
2 | < 0.1 µM | [2H]C([2H])([2H])N1C(=O)c2cccc(OC(F)F)c2[C@H]2C[C@@H]1c1nc3ccc(C#CC4COC4)cc3n12 [Example 80, (7R,14R)-1-(difluoromethoxy)-6-(methyl-d3)-11-(oxetan-3-ylethynyl)-6,7-dihydro-7,14-methanobenzo[f]benzo[4,5]imidazo[1,2-a][1,4]diazocin-5(14H)-one]
3 | 0.1 to 1 µM | [2H]C([2H])([2H])N1C(=O)c2cccc(OC(F)F)c2[C@H]2C[C@@H]1c1nc3ccc(C#CCC4(O)COC4)cc3n12 [Example 81, (7R,14R)-1-(difluoromethoxy)-11-(3-(3-hydroxyoxetan-3-yl)prop-1-yn-1-yl)-6-(methyl-d3)-6,7-dihydro-7,14-methanobenzo[f]benzo[4,5]imidazo[1,2-a][1,4]diazocin-5(14H)-one]
4 | 10 to 30 µM | [2H]C([2H])([2H])N1C(=O)c2cccc(OC(F)F)c2[C@H]2C[C@@H]1c1nc3ccc(C#CCC(C)(C)O)cc3n12 [Example 82, (7R,14R)-1-(difluoromethoxy)-11-(4-hydroxy-4-methylpent-1-yn-1-yl)-6-(methyl-d3)-6,7-dihydro-7,14-methanobenzo[f]benzo[4,5]imidazo[1,2-a][1,4]diazocin-5(14H)-one]
5 | < 0.1 µM | [2H]C([2H])([2H])N1C(=O)c2cccc(OC(F)F)c2[C@H]2C[C@@H]1c1nc3ccc(C#CCCCO)cc3n12 [Example 83, (7R,14R)-1-(difluoromethoxy)-11-(5-hydroxypent-1-yn-1-yl)-6-(methyl-d3)-6,7-dihydro-7,14-methanobenzo[f]benzo[4,5]imidazo[1,2-a][1,4]diazocin-5(14H)-one]
6 | < 0.1 µM | [2H]C([2H])([2H])N1C(=O)c2cccc(OC(F)F)c2[C@H]2C[C@@H]1c1nc3ccc(C#CC4CC4)cc3n12 [Example 85, (7R,14R)-11-(cyclopropylethynyl)-1-(difluoromethoxy)-6-(methyl-d3)-6,7-dihydro-7,14-methanobenzo[f]benzo[4,5]imidazo[1,2-a][1,4]diazocin-5(14H)-one]
7 | < 0.1 µM | [2H]C([2H])([2H])N1C(=O)c2cccc(OC(F)F)c2[C@H]2C[C@@H]1c1nc3ccc(C#CCCCC#N)cc3n12 [Example 86, 6-((7R,14R)-1-(difluoromethoxy)-6-(methyl-d3)-5-oxo-5,6,7,14-tetrahydro-7,14-methanobenzo[f]benzo[4,5]imidazo[1,2-a][1,4]diazocin-11-yl)hex-5-ynenitrile]
8 | < 0.1 µM | [2H]C([2H])([2H])N1C(=O)c2cccc(OC(F)F)c2[C@H]2C[C@@H]1c1nc3ccc(C#CCCC#N)cc3n12 [Example 87, 5-((7R,14R)-1-(difluoromethoxy)-6-(methyl-d3)-5-oxo-5,6,7,14-tetrahydro-7,14-methanobenzo[f]benzo[4,5]imidazo[1,2-a][1,4]diazocin-11-yl)pent-4-ynenitrile]

same assay, conditions: IC50 value, HEK Blue TNFα reporter cells; TNF-α 100 μg/ml; 24 hrs at 37° C.; inhibition of secreted alkaline phosphatase

Row | IC50 | SMILES
9 | < 0.1 µM | [2H]C([2H])([2H])N1C(=O)c2cccc(OC(F)F)c2[C@H]2C[C@@H]1c1nc3ccc(C#CCC)cc3n12 [Example 84, (7R,14R)-11-(but-1-yn-1-yl)-1-(difluoromethoxy)-6-(methyl-d3)-6,7-dihydro-7,14-methanobenzo[f]benzo[4,5]imidazo[1,2-a][1,4]diazocin-5(14H)-one]
10 | < 0.1 µM | [2H]C([2H])([2H])N1C(=O)c2cccc(OC(F)F)c2[C@H]2C[C@@H]1c1nc3ccc(C#CCCC)cc3n12 [Example 88, (7R,14R)-1-(difluoromethoxy)-6-(methyl-d3)-11-(pent-1-yn-1-yl)-6,7-dihydro-7,14-methanobenzo[f]benzo[4,5]imidazo[1,2-a][1,4]diazocin-5(14H)-one]

— patent US20260365682A1, “MODULATORS OF TNF-ALPHA ACTIVITY” (Forward Therapeutics, Inc., priority 2022, published 2026)
